Several values for one entry are separate records, joined by “and”; a condition that tells them apart may be missing. Equal entries are not always repeated. Toxic doses and inconclusive results are not listed. How the source made its calls: active means survival T/C of 150% or more; inactive means T/C below 125% in these data.
Tested on: CD2F1 mice, L1210 leukemia ip, survival T/C
Experiment: NCI In Vivo Anticancer Drug Screen. Data for tumor model L1210 Leukemia (intraperitoneal) in CD2F1 (CDF1) mice
Settings: higher = longer survival
Procedure, shortened: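 Read-out first: treated-group measurement over vehicle-control measurement, expressed as a ratio. Animals bore a transplanted tumor line and were dosed with compound or vehicle.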

[1] = endpoint: mean survival time, dose: 50.0 mg/kg/injection, schedule: Q01DX009 (ip), vehicle: Klucel (hydroxypropylcellulose) (HPC)
[2] = endpoint: mean survival time, dose: 100.0 mg/kg/injection, schedule: Q01DX009 (ip), vehicle: Klucel (hydroxypropylcellulose) (HPC)
[3] = endpoint: mean survival time, dose: 100.0 mg/kg/injection, schedule: Q04DX003 (ip), vehicle: saline with Tween-80
[4] = endpoint: mean survival time, dose: 200.0 mg/kg/injection, schedule: Q04DX003 (ip), vehicle: saline with Tween-80
[5] = endpoint: mean survival time, dose: 100.0 mg/kg/injection, schedule: Q01DX009 (ip), vehicle: saline with Tween-80
[6] = endpoint: mean survival time, dose: 200.0 mg/kg/injection, schedule: Q01DX009 (ip), vehicle: saline with Tween-80
[7] = endpoint: mean survival time, dose: 400.0 mg/kg/injection, schedule: Q01DX009 (ip), vehicle: saline with Tween-80
[8] = endpoint: mean survival time, dose: 400.0 mg/kg/injection, schedule: Q04DX003 (ip), vehicle: saline with Tween-80
[9] = endpoint: mean survival time, dose: 50.0 mg/kg/injection, schedule: Q01DX009 (ip), vehicle: saline with Tween-80
[10] = endpoint: mean survival time, dose: 100.0 mg/kg/injection, schedule: Q04DX002 (ip), vehicle: saline with Tween-80
[11] = endpoint: mean survival time, dose: 200.0 mg/kg/injection, schedule: Q04DX002 (ip), vehicle: saline with Tween-80
[12] = endpoint: mean survival time, dose: 200.0 mg/kg/injection, schedule: Q01DX001 (ip), vehicle: saline with Tween-80
[13] = endpoint: mean survival time, dose: 400.0 mg/kg/injection, schedule: Q01DX001 (ip), vehicle: saline with Tween-80

Measured: T/C

NC1CCC(Br)C2CCCCC12 (stereo not given)
inactive: endpoint: mean survival time, dose: 5.0 mg/kg/injection, schedule: Q01DX001 (ip), vehicle: saline with Tween-80 103 % of control | endpoint: mean survival time, dose: 10.0 mg/kg/injection, schedule: Q01DX001 (ip), vehicle: saline with Tween-80 103 % of control | endpoint: mean survival time, dose: 20.0 mg/kg/injection, schedule: Q01DX001 (ip), vehicle: saline with Tween-80 104 % of control

O=C(Nc1ccc(F)c(Cl)c1)Oc1ccc(OCc2ccccc2)cc1
inactive: [1] 87 % of control | [2] 98 % of control | endpoint: mean survival time, dose: 200.0 mg/kg/injection, schedule: Q01DX009 (ip), vehicle: Klucel (hydroxypropylcellulose) (HPC) 93 % of control

Oc1ccc(Nc2c3ccccc3nc3c2ccc2ccccc23)cc1CN(CCCl)CCCl
inactive: endpoint: mean survival time, dose: 6.25 mg/kg/injection, schedule: Q01DX009 (ip), vehicle: saline 91 % of control

NC(=O)c1ncc[nH]c1=O
inactive: [3] 103 % of control | [4] 91 % of control

CCC(C#N)C1=CCCCCC1 (stereo not given)
inactive: [3] 103 % of control

CC(C)OC(CCCl)c1ccc(Cl)cc1 (stereo not given)
inactive: [5] 104 % of control | [3] 94 % of control | [6] 96 % of control | [4] 96 % of control | [7] 89 % of control | [8] 97 % of control

Cc1nn(CCO)c(C)c1N=[N+]([O-])c1c(C)nn(CCO)c1C
inactive: endpoint: mean survival time, dose: 3.12 mg/kg/injection, schedule: Q01DX009 (ip), vehicle: Klucel (hydroxypropylcellulose) (HPC) 102 % of control | endpoint: mean survival time, dose: 3.12 mg/kg/injection, schedule: Q01DX009 (ip), vehicle: saline with Tween-80 98 % of control | endpoint: mean survival time, dose: 6.25 mg/kg/injection, schedule: Q01DX009 (ip), vehicle: Klucel (hydroxypropylcellulose) (HPC) 95 % of control | endpoint: mean survival time, dose: 6.25 mg/kg/injection, schedule: Q01DX009 (ip), vehicle: saline with Tween-80 103 % of control | endpoint: mean survival time, dose: 12.5 mg/kg/injection, schedule: Q01DX009 (ip), vehicle: Klucel (hydroxypropylcellulose) (HPC) 96 % of control | endpoint: mean survival time, dose: 12.5 mg/kg/injection, schedule: Q01DX009 (ip), vehicle: saline with Tween-80 104 % of control | endpoint: mean survival time, dose: 25.0 mg/kg/injection, schedule: Q01DX009 (ip), vehicle: Klucel (hydroxypropylcellulose) (HPC) 95 % of control | endpoint: mean survival time, dose: 25.0 mg/kg/injection, schedule: Q01DX009 (ip), vehicle: saline with Tween-80 106 % of control | [1] 101 % of control | [9] 103 % of control | endpoint: mean survival time, dose: 50.0 mg/kg/injection, schedule: Q04DX003 (ip), vehicle: Klucel (hydroxypropylcellulose) (HPC) 113 % of control | [2] 95 % of control | endpoint: mean survival time, dose: 100.0 mg/kg/injection, schedule: Q04DX003 (ip), vehicle: Klucel (hydroxypropylcellulose) (HPC) 117 % of control

COc1ccc(NC(=O)Oc2ccccc2-c2ccccc2)cc1
inactive: [5] 98 % of control | [6] 89 % of control | [7] 89 % of control

Cc1cc(F)ccc1[NH-].Cc1cc(F)ccc1[NH-].[Cl][Pt+2][Cl]
inactive: endpoint: mean survival time, dose: 12.5 mg/kg/injection, schedule: Q04DX003 (ip), vehicle: saline with Tween-80 106 % of control | endpoint: mean survival time, dose: 25.0 mg/kg/injection, schedule: Q04DX003 (ip), vehicle: saline with Tween-80 101 % of control | endpoint: mean survival time, dose: 50.0 mg/kg/injection, schedule: Q04DX003 (ip), vehicle: saline with Tween-80 91 % of control | [3] 95 % of control | [4] 89 % of control

O=C(O)C(O)C(O)C1[O][Sb][O]C1C(=O)O (stereo not given)
inactive: endpoint: median survival time, dose: 6.25 mg/kg/injection, schedule: Q01DX009 (ip), vehicle: saline 93 % of control | endpoint: median survival time, dose: 12.5 mg/kg/injection, schedule: Q01DX009 (ip), vehicle: saline 102 % of control | endpoint: median survival time, dose: 25.0 mg/kg/injection, schedule: Q01DX009 (ip), vehicle: saline 95 % of control | endpoint: median survival time, dose: 50.0 mg/kg/injection, schedule: Q01DX009 (ip), vehicle: saline 98 % of control

CCc1ccc(NC(=O)/C=C/c2ccccc2)cc1
inactive: [10] 93 % of control | [11] 89 % of control | endpoint: mean survival time, dose: 400.0 mg/kg/injection, schedule: Q04DX002 (ip), vehicle: saline with Tween-80 104 % of control

CCC[S][Pb]([c]1ccccc1)([c]1ccccc1)[c]1ccccc1
inactive: endpoint: mean survival time, dose: 10.0 mg/kg/injection, schedule: Q01DX001 (ip), vehicle: Klucel (hydroxypropylcellulose) (HPC) 98 % of control | endpoint: mean survival time, dose: 20.0 mg/kg/injection, schedule: Q01DX001 (ip), vehicle: Klucel (hydroxypropylcellulose) (HPC) 101 % of control | endpoint: mean survival time, dose: 40.0 mg/kg/injection, schedule: Q01DX001 (ip), vehicle: Klucel (hydroxypropylcellulose) (HPC) 104 % of control

Cc1cc(N)c(S(=O)(=O)NO)cc1Cl
inactive: endpoint: mean survival time, dose: 100.0 mg/kg/injection, schedule: Q01DX001 (ip), vehicle: saline with Tween-80 96 % of control | [12] 96 % of control | [13] 102 % of control

Nc1nc(SSc2nc(N)nc3c2ncn3C2OC(CO)CC2O)c2ncn(C3OC(CO)CC3O)c2n1 (stereo not given)
inactive: endpoint: mean survival time, dose: 300.0 mg/kg/injection, schedule: Q01DX001 (ip), vehicle: saline 118 % of control

CCC(=O)Nc1ccc(C)c(Cl)c1
inactive: [5] 95 % of control | [3] 96 % of control | [6] 95 % of control | [4] 95 % of control | [7] 104 % of control | [8] 97 % of control

O=CN1CCCCC1
inactive: endpoint: mean survival time, dose: 100.0 mg/kg/injection, schedule: Q04DX002 (ip), vehicle: saline 97 % of control | endpoint: mean survival time, dose: 200.0 mg/kg/injection, schedule: Q04DX002 (ip), vehicle: saline 108 % of control

Clc1c(Cl)c(Cl)c(CSCc2c(Cl)c(Cl)c(Cl)c(Cl)c2Cl)c(Cl)c1Cl
inactive: [5] 93 % of control | [3] 91 % of control | [6] 96 % of control | [4] 96 % of control | [7] 94 % of control | [8] 90 % of control

O=C(c1ccccc1)C(Br)C(Br)c1ccccc1 (stereo not given)
inactive: [5] 93 % of control | [3] 94 % of control | [12] 91 % of control | [6] 106 % of control | [4] 90 % of control | [13] 94 % of control | [7] 95 % of control | [8] 92 % of control

Nc1cccc2cn[nH]c12
inactive: endpoint: mean survival time, dose: 100.0 mg/kg/injection, schedule: Q04DX003 (ip), vehicle: other 98 % of control | endpoint: mean survival time, dose: 200.0 mg/kg/injection, schedule: Q04DX003 (ip), vehicle: other 96 % of control | endpoint: mean survival time, dose: 400.0 mg/kg/injection, schedule: Q04DX003 (ip), vehicle: other 101 % of control

O=C(O)c1cccc(F)c1Cl
inactive: [10] 95 % of control | [11] 102 % of control

CCCC/C=N/NC(=O)c1ccc[n+](C)c1
inactive: endpoint: mean survival time, dose: 100.0 mg/kg/injection, schedule: Q04DX003 (ip), vehicle: saline 102 % of control | endpoint: mean survival time, dose: 200.0 mg/kg/injection, schedule: Q04DX003 (ip), vehicle: saline 98 % of control | endpoint: mean survival time, dose: 400.0 mg/kg/injection, schedule: Q04DX003 (ip), vehicle: saline 105 % of control

CC(=O)OC(C(=O)NC(CC(C)C)C(=O)O)c1ccccc1 (stereo not given)
inactive: [3] 98 % of control | [4] 95 % of control | [8] 103 % of control

OCn1c2ccccc2c2ccccc21
inactive: [3] 89 % of control | [4] 87 % of control | [8] 87 % of control

S=C(Nc1ccccc1)NC1CCCCC1
inactive: [3] 100 % of control | [4] 102 % of control | [8] 97 % of control

CCOC(=O)c1ccnc2ccc(O)cc12
inactive: [5] 104 % of control | [6] 93 % of control | [7] 95 % of control

COC(=O)c1ccccc1NC(=O)CCl
inactive: [9] 96 % of control | [5] 98 % of control | [6] 94 % of control

COC1OC2COc3ccccc3OC2C(N)C1N(C)c1ccccc1 (stereo not given)
inactive: endpoint: mean survival time, dose: 75.0 mg/kg/injection, schedule: Q01DX001 (ip), vehicle: saline with Tween-80 100 % of control | endpoint: mean survival time, dose: 150.0 mg/kg/injection, schedule: Q01DX001 (ip), vehicle: saline with Tween-80 97 % of control

O=C1CN(CN2CCOCC2)C(=O)CN1CN1CCOCC1
inactive: endpoint: mean survival time, dose: 12.5 mg/kg/injection, schedule: Q01DX009 (ip), vehicle: saline 98 % of control and 101 % of control | endpoint: mean survival time, dose: 25.0 mg/kg/injection, schedule: Q01DX009 (ip), vehicle: saline 96 % of control and 98 % of control | endpoint: mean survival time, dose: 50.0 mg/kg/injection, schedule: Q01DX009 (ip), vehicle: saline 90 % of control and 102 % of control | endpoint: mean survival time, dose: 100.0 mg/kg/injection, schedule: Q01DX009 (ip), vehicle: saline 102 % of control and 108 % of control | endpoint: mean survival time, dose: 200.0 mg/kg/injection, schedule: Q01DX009 (ip), vehicle: saline 106 % of control and 111 % of control | endpoint: mean survival time, dose: 400.0 mg/kg/injection, schedule: Q01DX009 (ip), vehicle: saline 93 % of control and 107 % of control

CC(OC(=O)c1ccccc1)c1ccccc1 (stereo not given)
inactive: [5] 95 % of control | [3] 96 % of control | [6] 105 % of control | [4] 105 % of control | [7] 112 % of control | [8] 94 % of control
